Laboratory results from patent US9661853B2, “Molecules having pesticidal utility, and intermediates, compositions, and processes, related thereto” (Dow AgroSciences LLC, priority 2015, dated 2017).

Key:
[1] = tested on: Beet Armyworm (Spodoptera exigua, LAPHEG); experiment: Bioassay on Beet Armyworm (BAW), 128-well diet tray assay; type: in vivo; conditions: 168 h, 50 μg/cm^2 on artificial diet, second instar larvae, 25° C., five to seven days, average of eight wells, read-out: BAW % Control (or Mortality) rating
Description: (§1) Bioassays on Beet Armyworm (Spodoptera exigua, LAPHEG) (“BAW”) and Cabbage Looper (Trichoplusia ni, TRIPNI) (“CL”)
(§2) Certain molecules disclosed in this document were tested against BAW and CL using procedures described in the following examples. In the reporting of the results, the “BAW & CL Rating Table” was used (See Table Section).
Bioassays on BAW were conducted using a 128-well diet tray assay. One to five second instar BAW larvae were placed in each well (3 mL) of the diet tray that had been previously filled with 1 mL of artificial diet to which 50 μg/cm^2 of the test molecule (dissolved in 50 μL of 90:10 acetone-water mixture) had been applied (to each of eight wells) and then allowed to dry. Trays were covered with a clear self-adhesive cover, vented to allow gas exchange, and held at 25° C., 14:10 light-dark for five to seven days. Percent mortality was recorded for the larvae in each well; activity in the eight wells was then averaged. The results are indicated in the table entitled “Table ABC: Biological Results” (See Table Section).

[2] = tested on: Cabbage Looper (Trichoplusia ni, TRIPNI); experiment: Bioassay on Cabbage Looper (CL), 128-well diet tray assay; type: in vivo; conditions: 168 h, 50 μg/cm^2 on artificial diet, second instar larvae, 25° C., five to seven days, average of eight wells, read-out: CL % Control (or Mortality) rating
Description: as §1, §2
Bioassays on CL were conducted using a 128-well diet tray assay. One to five second instar CL larvae were placed in each well (3 mL) of the diet tray that had been previously filled with 1 mL of artificial diet to which 50 μg/cm^2 of the test molecule (dissolved in 50 μL of 90:10 acetone-water mixture) had been applied (to each of eight wells) and then allowed to dry. Trays were covered with a clear self-adhesive cover, vented to allow gas exchange, and held at 25° C., 14:10 light-dark for five to seven days. Percent mortality was recorded for the larvae in each well; activity in the eight wells was then averaged. The results are indicated in the table entitled “Table ABC: Biological Results” (See Table Section).

Q: For `Cc1ccc(C(C)C)c(N2C(=O)CS/C2=N\C(=O)Nc2ccc(CNc3ncn(-c4ccc(OC(F)(F)F)cc4)n3)cc2F)c1`, which melting point is on record?
A: The melting point was 236 to 238 °C.

Q: For `COCc1ccc(C)cc1N1C(=O)CS/C1=N\C(=O)Nc1ccc(CNc2ncn(-c3ccc(OC(F)(F)F)cc3)n2)cc1F`, which melting point is on record?
A: Its melting point is 205 to 207 °C.

Q: For `COCc1ccc(C)cc1N1C(=O)CS/C1=N\C(=O)Nc1ccc(CNc2ncn(-c3ccc(OC(F)(F)F)cc3)n2)cn1` [F13, (Z)-1-(3-(2-(Methoxymethyl)-5-methylphenyl)-4-oxothiazolidin-2-ylidene)-3-(5-(((1-(4-(trifluoromethoxy)phenyl)-1H-1,2,4-triazol-3-yl)amino)methyl)pyridin-2-yl)urea], which mortality at 50 µg/cm2 [1] is on record?
A: The mortality at 50 µg/cm2 was 50 to 100%.

Q: And the mortality at 50 µg/cm2 [2]?
A: The mortality at 50 µg/cm2 was 50 to 100%.

Q: With `CCCc1ccc(C)cc1N1C(=O)CS/C1=N\C(=O)Nc1ccc(CN(C)c2ncn(-c3ccc(OC(F)(F)F)cc3)n2)cc1` [F23, (Z)-1-(4-((Methyl(1-(4-(trifluoromethoxy)phenyl)-1H-1,2,4-triazol-3-yl)amino)methyl)phenyl)-3-(3-(5-methyl-2-propylphenyl)-4-oxothiazolidin-2-ylidene)urea] as the molecule, how does the mortality at 50 µg/cm2 [1] read?
A: Its mortality at 50 µg/cm2 is 50 to 100%.

Q: What about the mortality at 50 µg/cm2 [2] of the same molecule?
A: Its mortality at 50 µg/cm2 is 50 to 100%.

Q: Which mortality at 50 µg/cm2 [1] does the source give for `Cc1ccc(C(C)C)c(N2C(=O)CS/C2=N\C(=O)Nc2ccc(NCc3ncn(-c4ccc(OC(F)(F)F)cc4)n3)c(Cl)c2)c1` [F43, (Z)-1-(3-Chloro-4-(((1-(4-(trifluoromethoxy)phenyl)-1H-1,2,4-triazol-3-yl)methyl)amino)phenyl)-3-(3-(2-isopropyl-5-methylphenyl)-4-oxothiazolidin-2-ylidene)urea] here?
A: The mortality at 50 µg/cm2 was 50 to 100%.

Q: And the mortality at 50 µg/cm2 [2]?
A: The mortality at 50 µg/cm2 was 50 to 100%.

Q: For `COCc1ccc(C)cc1N1C(=O)CS/C1=N\C(=O)Nc1ccc(CNc2ncn(-c3ccc(OC(F)(F)F)cc3)n2)c(Cl)c1` [F9, (Z)-1-(3-Chloro-4-(((1-(4-(trifluoromethoxy)phenyl)-1H-1,2,4-triazol-3-yl)amino)methyl)phenyl)-3-(3-(2-(methoxymethyl)-5-methylphenyl)-4-oxothiazolidin-2-ylidene)urea], which mortality at 50 µg/cm2 [1] is on record?
A: Its mortality at 50 µg/cm2 is 50 to 100%.

Q: What about the mortality at 50 µg/cm2 [2] of the same molecule?
A: Its mortality at 50 µg/cm2 is 50 to 100%.

Q: With `CCCc1ccc(C)cc1N1C(=O)CS/C1=N\C(=O)Nc1ccc(CN(C)c2ncn(-c3ccc(OC(F)(F)F)cc3)n2)c(Cl)c1` [F19, (Z)-1-(3-Chloro-4-((methyl(1-(4-(trifluoromethoxy)phenyl)-1H-1,2,4-triazol-3-yl)amino)methyl)phenyl)-3-(3-(5-methyl-2-propylphenyl)-4-oxothiazolidin-2-ylidene)urea] as the molecule, how does the mortality at 50 µg/cm2 [1] read?
A: The mortality at 50 µg/cm2 was 0%.

Q: And the mortality at 50 µg/cm2 [2]?
A: Its mortality at 50 µg/cm2 is 0%.

Q: What does the source list for `Cc1ccc(C(C)C)c(N2C(=O)CS/C2=N\C(=O)Nc2ccc(CN(C)c3ncn(-c4ccc(OC(F)(F)F)cc4)n3)c(Cl)c2)c1` [F20, (Z)-1-(3-Chloro-4-((methyl(1-(4-(trifluoromethoxy)phenyl)-1H-1,2,4-triazol-3-yl)amino)methyl)phenyl)-3-(3-(2-isopropyl-5-methylphenyl)-4-oxothiazolidin-2-ylidene)urea]?
A: mortality at 50 µg/cm2 [1]: 0 to 50%; mortality at 50 µg/cm2 [2]: 50 to 100%

Q: Which mortality at 50 µg/cm2 [1] does the source give for `Cc1ccc(C(C)C)c(N2C(=O)CS/C2=N\C(=O)Nc2ccc(NCc3ncn(-c4ccc(OC(F)(F)F)cc4)n3)cc2Cl)c1` [F40, (Z)-1-(2-Chloro-4-(((1-(4-(trifluoromethoxy)phenyl)-1H-1,2,4-triazol-3-yl)methyl)amino)phenyl)-3-(3-(2-isopropyl-5-methylphenyl)-4-oxothiazolidin-2-ylidene)urea] here?
A: The mortality at 50 µg/cm2 was 50 to 100%.

Q: What about the mortality at 50 µg/cm2 [2] of the same molecule?
A: Its mortality at 50 µg/cm2 is 50 to 100%.

Q: Which mortality at 50 µg/cm2 [1] does the source give for `COCc1ccc(C)cc1N1C(=O)CS/C1=N\C(=O)Nc1ccc(NCc2ncn(-c3ccc(OC(F)(F)F)cc3)n2)c(OC)c1` [F39, (Z)-1-(3-Methoxy-4-(((1-(4-(trifluoromethoxy)phenyl)-1H-1,2,4-triazol-3-yl)methyl)amino)phenyl)-3-(3-(2-(methoxymethyl)-5-methylphenyl)-4-oxothiazolidin-2-ylidene)urea] here?
A: The mortality at 50 µg/cm2 was 50 to 100%.

Q: And the mortality at 50 µg/cm2 [2]?
A: The mortality at 50 µg/cm2 was 50 to 100%.

Q: Which results are given for `Cc1ccc(C(C)C)c(N2C(=O)CS/C2=N\C(=O)Nc2ccc(NCc3ncn(-c4ccc(OC(F)(F)F)cc4)n3)cc2)c1` [F28, (Z)-1-(3-(2-isopropyl-5-methylphenyl)-4-oxothiazolidin-2-ylidene)-3-(4-(((1-(4-(trifluoromethoxy)phenyl)-1H-1,2,4-triazol-3-yl)methyl)amino)phenyl)urea]?
A: mortality at 50 µg/cm2 [1]: 50 to 100%; mortality at 50 µg/cm2 [2]: 50 to 100%

Q: What does the source list for `Cc1ccc(C(C)C)c(N2C(=O)CS/C2=N\C(=O)Nc2ccc(CN(C)c3ncn(-c4ccc(OC(F)(F)F)cc4)n3)cc2)c1` [F24, (Z)-1-(3-(2-Isopropyl-5-methylphenyl)-4-oxothiazolidin-2-ylidene)-3-(4-((methyl(1-(4-(trifluoromethoxy)phenyl)-1H-1,2,4-triazol-3-yl)amino)methyl)phenyl)urea]?
A: mortality at 50 µg/cm2 [1]: 50 to 100%; mortality at 50 µg/cm2 [2]: 50 to 100%

Q: With `CCCc1ccc(C)cc1N1C(=O)CS/C1=N\C(=O)Nc1ccc(CN(C)c2ncn(-c3ccc(OC(F)(F)F)cc3)n2)cn1` as the molecule, how does the melting point read?
A: Its melting point is 184 °C (dec.).

Q: With `COCc1ccc(C)cc1N1C(=O)CS/C1=N\C(=O)Nc1ccc(CNc2ncn(-c3ccc(OC(F)(F)F)cc3)n2)cc1` [F4, (Z)-1-(3-(2-(Methoxymethyl)-5-methylphenyl)-4-oxothiazolidin-2-ylidene)-3-(4-(((1-(4-(trifluoromethoxy)phenyl)-1H-1,2,4-triazol-3-yl)amino)methyl)phenyl)urea] as the molecule, how does the mortality at 50 µg/cm2 [1] read?
A: Its mortality at 50 µg/cm2 is 50 to 100%.

Q: And the mortality at 50 µg/cm2 [2]?
A: The mortality at 50 µg/cm2 was 50 to 100%.

Q: Which results are given for `CCCc1ccc(C)cc1N1C(=O)CS/C1=N\C(=O)Nc1ccc(CNc2ncn(-c3ccc(OC(F)(F)F)cc3)n2)c(Cl)c1` [F8, (Z)-1-(3-Chloro-4-(((1-(4-(trifluoromethoxy)phenyl)-1H-1,2,4-triazol-3-yl)amino)methyl)phenyl)-3-(3-(5-methyl-2-propylphenyl)-4-oxothiazolidin-2-ylidene)urea]?
A: mortality at 50 µg/cm2 [1]: 50 to 100%; mortality at 50 µg/cm2 [2]: 50 to 100%

Q: For `CCCc1ccc(C)cc1N1C(=O)CS/C1=N\C(=O)Nc1ccc(NCc2ncn(-c3ccc(OC(F)(F)F)cc3)n2)c(F)c1` [F35, (Z)-1-(3-Fluoro-4-(((1-(4-(trifluoromethoxy)phenyl)-1H-1,2,4-triazol-3-yl)methyl)amino)phenyl)-3-(3-(5-methyl-2-propylphenyl)-4-oxothiazolidin-2-ylidene)urea], which mortality at 50 µg/cm2 [1] is on record?
A: Its mortality at 50 µg/cm2 is 50 to 100%.

Q: What about the mortality at 50 µg/cm2 [2] of the same molecule?
A: Its mortality at 50 µg/cm2 is 50 to 100%.

Q: Which mortality at 50 µg/cm2 [1] does the source give for `CCCc1ccc(C)cc1N1C(=O)CS/C1=N\C(=O)Nc1ccc(NCc2ncn(-c3ccc(OC(F)(F)F)cc3)n2)cc1F` [F32, (Z)-1-(2-Fluoro-4-(((1-(4-(trifluoromethoxy)phenyl)-1H-1,2,4-triazol-3-yl)methyl)amino)phenyl)-3-(3-(5-methyl-2-propylphenyl)-4-oxothiazolidin-2-ylidene)urea] here?
A: The mortality at 50 µg/cm2 was 50 to 100%.

Q: And the mortality at 50 µg/cm2 [2]?
A: The mortality at 50 µg/cm2 was 50 to 100%.

Q: What does the source list for `Cc1ccc(C(C)C)c(N2C(=O)CS/C2=N\C(=O)Nc2ccc(CNc3ncn(-c4ccc(OC(F)(F)F)cc4)n3)cn2)c1` [F11, (Z)-1-(3-(2-Isopropyl-5-methylphenyl)-4-oxothiazolidin-2-ylidene)-3-(5-(((1-(4-(trifluoromethoxy)phenyl)-1H-1,2,4-triazol-3-yl)amino)methyl)pyridin-2-yl)urea]?
A: mortality at 50 µg/cm2 [1]: 50 to 100%; mortality at 50 µg/cm2 [2]: 50 to 100%

Q: Which mortality at 50 µg/cm2 [1] does the source give for `COc1cc(NC(=O)/N=C2\SCC(=O)N2c2cc(C)ccc2C(C)C)ccc1NCc1ncn(-c2ccc(OC(F)(F)F)cc2)n1` [F37, (Z)-1-(3-(2-Isopropyl-5-methylphenyl)-4-oxothiazolidin-2-ylidene)-3-(3-methoxy-4-(((1-(4-(trifluoromethoxy)phenyl)-1H-1,2,4-triazol-3-yl)methyl)amino)phenyl)urea] here?
A: Its mortality at 50 µg/cm2 is 50 to 100%.

Q: What about the mortality at 50 µg/cm2 [2] of the same molecule?
A: The mortality at 50 µg/cm2 was 50 to 100%.

Q: With `COCc1ccc(C)cc1N1C(=O)CS/C1=N\C(=O)Nc1ccc(NCc2ncn(-c3ccc(OC(F)(F)F)cc3)n2)c(F)c1` [F36, (Z)-1-(3-Fluoro-4-(((1-(4-(trifluoromethoxy)phenyl)-1H-1,2,4-triazol-3-yl)methyl)amino)phenyl)-3-(3-(2-(methoxymethyl)-5-methylphenyl)-4-oxothiazolidin-2-ylidene)urea] as the molecule, how does the mortality at 50 µg/cm2 [1] read?
A: Its mortality at 50 µg/cm2 is 50 to 100%.

Q: And the mortality at 50 µg/cm2 [2]?
A: The mortality at 50 µg/cm2 was 50 to 100%.

Q: With `COCc1ccc(C)cc1N1C(=O)CS/C1=N\C(=O)Nc1ccc(NCc2ncn(-c3ccc(OC(F)(F)F)cc3)n2)cc1` [F30, (Z)-1-(3-(2-(Methoxymethyl)-5-methylphenyl)-4-oxothiazolidin-2-ylidene)-3-(4-(((1-(4-(trifluoromethoxy)phenyl)-1H-1,2,4-triazol-3-yl)methyl)amino)phenyl)urea] as the molecule, how does the mortality at 50 µg/cm2 [1] read?
A: Its mortality at 50 µg/cm2 is 50 to 100%.

Q: What about the mortality at 50 µg/cm2 [2] of the same molecule?
A: Its mortality at 50 µg/cm2 is 50 to 100%.

Q: For `Cc1ccc(C(C)C)c(N2C(=O)CS/C2=N\C(=O)Nc2ccc(NCc3ncn(-c4ccc(OC(F)(F)F)cc4)n3)c(F)c2)c1` [F34, (Z)-1-(3-Fluoro-4-(((1-(4-(trifluoromethoxy)phenyl)-1H-1,2,4-triazol-3-yl)methyl)amino)phenyl)-3-(3-(2-isopropyl-5-methylphenyl)-4-oxothiazolidin-2-ylidene)urea], which mortality at 50 µg/cm2 [1] is on record?
A: Its mortality at 50 µg/cm2 is 50 to 100%.

Q: And the mortality at 50 µg/cm2 [2]?
A: The mortality at 50 µg/cm2 was 50 to 100%.
